Measured values as given in EP1522308A1, “Use of chlorophyll or analogues for the prevention of cytotoxic effects of dietary heme on the intestinal mucosa” (Stichting Top-Instituut Voedselwetenschappen, priority 2003, dated 2005).

Key:
colonic epithelial cells = test: In vivo colonic epithelial cell proliferation, [methyl-3H]thymidine incorporation into DNA; parameters: species or system rats
Method: About eight-week-old, outbred male Wistar rats (Harlan Horst/WU, SPF) were housed individually in metabolic cages in a room with controlled temperature (± 20°C), relative humidity (50-60%) and a light/dark cycle (6 AM to 6 PM). Animals were acclimatized to housing conditions for 5 days before start of the experiment.
In the first study we tested whether spinach prevents the effect of dietary heme. […] During two weeks, four groups of eight rats were fed purified diets. The control group consumed a diet which contained per kg, 200 g casein, 532 g dextrose, 200 g fat (160 g palm fat and 40 g corn oil), 20 g cellulose and 20 mmol calcium phosphate (CaPO4·2H2O, Fluka Chemie Buchs, Switzerland). […]
After the experimental feeding period of 14 days, we quantified the colon epithelial cell proliferation as DNA-replication, using [methyl-^3H]thymidine incorporation into DNA. […] These homogenates were analyzed for ^3H-thymidine incorporation and for total DNA content. […] A sample (0.5 ml) of the hydrolysate was dissolved in 15 ml Aqua Luma (Lumac-LSC BV., Groningen, The Netherlands) and counted with corrections for quenching on a Beckman LS-7500 liquid scintillation counter. DNA content was determined using the diphenylamine reaction with calf thymus DNA as standard (Sigma) [24].

[1] = test system: human erythrocyte suspension; test: Cytotoxicity of fecal water, potassium release from erythrocytes (erythrocyte bioassay); format: cell-based
Method: Fecal water was prepared by reconstituting a small amount of freeze-dried feces with double-distilled water to 20 % dry weight. After homogenizing, samples were incubated for 1 hour in a shaking water bath at 37°C, with mixing every 15 min, followed by centrifugation for 20 min at 13.500 g. The supernatants were collected and centrifuged again at 14.000 g for 2 min. The osmolarity (Osmomat 030-D, Gonotec, Berlin, Germany) of the fecal waters was determined. If osmolarity differed from 300 mOsmol/L, another portion of freeze-dried feces was reconstituted with double-distilled water, adjusting the percentage dry weight to obtain fecal water with an osmolarity of 300 mOsmol/L. The fecal waters were stored at -20°C until further analysis.
(§1) Cytotoxicity of fecal water was quantified by potassium release after incubation with a human erythrocyte suspension as described previously and validated earlier with intestinal epithelial cells. The potassium content of the erythrocytes was measured with an Inductive Coupled Plasma […] Emission Spectrophotometer (ICP-AES, Varian, Mulgrave, Australia) and the cytotoxicity of fecal water was calculated and expressed as a percentage of maximal lysis.

colonocytes = test: Quantification of epithelial (host) DNA in feces by real-time PCR for the β-globin gene; format: in vivo, rats
Method: Food and demineralised drinking water were supplied ad libitum.
Fecal host DNA content was quantified using DNA extraction and real-time PCR, using rat-specific probe and primers for the β-globin gene. In short, DNA was isolated from 20 mg freeze-dried feces using the QIAamp DNA stool mini kit (Westburg, Leusden, The Netherlands) following the recommendations of the manufacturer for human DNA analysis. […] The standard DNA used for the quantification of the DNA in the feces was isolated from rat spleen, using the Wizard Genomic DNA purification kit (Promega Corporation, Madison, WI, USA). The real-time PCR was performed using the ABI prism 7700 Sequence Detection system (PE Applied Biosystems, Nieuwerkerk a/d IJssel, The Netherlands). Universal Taqman Master Mix and Taqman Exogenous Internal positive Control (IPC) Reagent (Vic ™ probe) were purchased from Applied Biosystems and the Taqman probe containing a 5' FAM labeled fluorescent reporter dye (6-carboxyfluorosein) and a 3' TAMRA quencher dye (6-carboxytetramethylrhodamine) was purchased from Proligo (Paris, France). PCR primers were synthesized by Amersham Pharmacia Biotech Custom DNA Synthesis Service (Roosendaal, The Netherlands). For amplification of host DNA 5 µl of the purified DNA (100-500 ng) was used in a volume of 50 µl, containing 1x Master Mix, 200 nM forward primer (5'-[…]-3'), 200 nM reverse primer (5'-[…]-3'), 100 nM probe (5'-[…]-3'), 1x IPC mix and 1x IPC DNA. The PCR protocol consisted of 2 min 50°C, 10 min 95°C and 40 cycles of 15 sec 95°C and 1 min 62°C.

colon mucosa = test: Total DNA content of colon mucosa scrapings (diphenylamine reaction); format: in vivo, rats; conditions: spinach study
Source text: After the experimental feeding period of 14 days, we quantified the colon epithelial cell proliferation as DNA-replication, using [methyl-^3H]thymidine incorporation into DNA. We choose this biochemical method because it is the most rapid, specific and quantitative marker of cell replication in vivo. Moreover, we have shown earlier that DNA-replication highly correlates with faecal water cytotoxicity. This substantiates a cause-and-effect relationship that we want to address in the present study. Non-fasted rats were injected i.p. with [methyl-^3H]thymidine (specific activity 925 GBq / mmol; dose 3.7 MBq / kg body weight; Amersham International, Amersham, UK) in 154 mM NaCl. After 2 hours the rats were killed by CO2 inhalation. The colon was removed and opened longitudinally. Colonic contents were removed by rinsing with 154 mM KCl. […] These homogenates were analyzed for ^3H-thymidine incorporation and for total DNA content. […] A sample (0.5 ml) of the hydrolysate was dissolved in 15 ml Aqua Luma (Lumac-LSC BV., Groningen, The Netherlands) and counted with corrections for quenching on a Beckman LS-7500 liquid scintillation counter. DNA content was determined using the diphenylamine reaction with calf thymus DNA as standard (Sigma).

[2] = test system: human erythrocyte suspension; test: Cytotoxicity of size exclusion chromatography fractions of lipid extracts of pooled fecal water; format: cell-based; conditions: chlorophyll study, heme group: high-molecular weight components eluting around 6 min (Figure 6B)
Method: as §1
Pooled fecal water from the different treatment groups was first purified, by adding 560 µl water and 2.5 ml diethylether (ether) to 100 µl fecal water, and after vigorous mixing, centrifugation at 1500 g for 5 minutes. The ether phase containing chlorophyll was discarded and the procedure was repeated 2 times. The remaining 660 µl sample was acidified with 60 µl HCl (final HCl concentration 1 M) and further extracted with chloroform / methanol as described earlier. The lipid-containing chloroform phase was obtained after centrifugation (10 min, 1500 g) and evaporated under nitrogen. […] The data was processed and analyzed using Shimadzu software. […] The cytotoxicity of these fractions was determined as described above, after resolubilising the samples in 50 mM NaOH and adjusting to neutral pH and 300 mOsm/L with 3-[N-morpholino]-propanesulfonic acid (MOPS).

## chlorophyll
Colonic epithelial cells; chlorophyll study, added to heme diet, 1,2 mmol chlorophyll / kg diet, 14 days (Figure 3)
  prevention of heme-induced epithelial hyperproliferation: completely prevented
[1]; chlorophyll study, supplemented to the heme diet, fecal water of rats (Figure 5)
  inhibition of heme-induced increase of cytotoxicity of the fecal water: completely
colonocytes; chlorophyll study, supplemented to the heme diet (Figure 4)
  effect on heme-induced reduction of host DNA in the feces: totally abolished

## hemin [heme]
Colonic epithelial cells; spinach study, 0.5 mmol heme / kg diet, 14 days
  increase in rate of DNA-replication compared with the control group: 50%
Colon mucosa; 0.5 mmol heme / kg diet
  decrease of DNA content of the mucosa compared with the other groups: 20%
Colon mucosa; mean ± SEM, n=8 per group
  DNA content of the mucosa: 4207 µg DNA / g scraping
[1]; chlorophyll study, 0.5 mmol heme / kg diet, fecal water of rats (Figure 5)
  cytotoxicity of the fecal water compared with the control diet: increase
[1]; spinach study, fecal water of rats, 0.5 mmol heme / kg diet
  increase of cytotoxicity of fecal water compared with the control group: 7 fold
colonocytes; chlorophyll study, 0.5 mmol heme / kg diet, feces of days 11-14 (Figure 4)
  host DNA detected in the feces compared to the control diet: strong reduction
colonocytes; summary of examples 1 and 2, dietary heme
  exfoliation of colonocytes (rat DNA quantification from faeces): inhibited this exfoliation of colonocytes almost completely
[2]
  cytotoxicity of collected size exclusion chromatography fractions: very high
